Columns and labels:
[1] = Liquid; for speed of sound / mass density: 303.15 K, 101.33 kPa; for speed of sound: Linear variable-path acoustic interferometer; for mass density: Pycnometric method
[2] = xn = mol fraction of the nth substance listed; details: 303.15 K, 101.33 kPa, Liquid, Direct dilatometry
[3] = φn = volume fraction of the nth substance listed; details: 303.15 K, 101.33 kPa, Liquid, Linear variable-path acoustic interferometer

ClC(Cl)=C(Cl)Cl [tetrachloroethene]
[1]
Details | Normal boiling temperature [°C] | mass density [kg/m3] | speed of sound [m/s]
– | 121.30 | 1606.36 | 1027.8

BrCCBr [1,2-dibromoethane] + ClC(Cl)C(Cl)Cl
Details | excess molar volume [m3/mol] | speed of sound [m/s]
[2], x1 = 0.0885 | -5.2e-08 | –
[2], x1 = 0.1554 | -9e-08 | –
[2], x1 = 0.3032 | -1.56e-07 | –
[2], x1 = 0.4447 | -1.71e-07 | –
[2], x1 = 0.5365 | -1.56e-07 | –
[2], x1 = 0.6757 | -9.8e-08 | –
[2], x1 = 0.7546 | -5.9e-08 | –
[2], x1 = 0.9124 | -3e-09 | –
[3], φ1 = 0.0736 | – | 1123.4
[3], φ1 = 0.1308 | – | 1112.7
[3], φ1 = 0.2625 | – | 1092.9
[3], φ1 = 0.3958 | – | 1069.6
[3], φ1 = 0.4864 | – | 1054.5
[3], φ1 = 0.6302 | – | 1031.7
[3], φ1 = 0.7156 | – | 1019.7
[3], φ1 = 0.895 | – | 995
[3], φ1 = 1 | – | 984

CC(Cl)(Cl)Cl [1,1,1-trichloroethane]
[1]
Details | Normal boiling temperature [°C] | mass density [kg/m3] | speed of sound [m/s]
– | 74 | 1320.92 | 943.2

BrCCBr [1,2-dibromoethane] + CC(Cl)(Cl)Cl
Details | speed of sound [m/s]
[3], φ1 = 1 | 984

BrCCBr [1,2-dibromoethane] + ClC(Cl)=C(Cl)Cl
Details | excess molar volume [m3/mol] | speed of sound [m/s]
[2], x1 = 0.1133 | 3e-07 | –
[2], x1 = 0.2647 | 4.61e-07 | –
[2], x1 = 0.3594 | 4.72e-07 | –
[2], x1 = 0.4806 | 4.4e-07 | –
[2], x1 = 0.6289 | 3.66e-07 | –
[2], x1 = 0.7163 | 3.1e-07 | –
[2], x1 = 0.7934 | 2.55e-07 | –
[2], x1 = 0.906 | 1.43e-07 | –
[3], φ1 = 0.0955 | – | 1010.1
[3], φ1 = 0.2327 | – | 992.8
[3], φ1 = 0.321 | – | 985.8
[3], φ1 = 0.4381 | – | 980.4
[3], φ1 = 0.5881 | – | 975.3
[3], φ1 = 0.6802 | – | 975.1
[3], φ1 = 0.7639 | – | 973.7
[3], φ1 = 0.8904 | – | 978.1
[3], φ1 = 1 | – | 984

ClC(Cl)=C(Cl)Cl [tetrachloroethene] + BrCCBr
Details | speed of sound [m/s]
[3], φ2 = 0 | 1027.8

BrCCBr [1,2-dibromoethane] + ClCCCl
Details | excess molar volume [m3/mol] | speed of sound [m/s]
[2], x1 = 0.0938 | 1.7e-08 | –
[2], x1 = 0.1759 | 3e-08 | –
[2], x1 = 0.2673 | 4.2e-08 | –
[2], x1 = 0.3502 | 4.7e-08 | –
[2], x1 = 0.4894 | 5.2e-08 | –
[2], x1 = 0.5845 | 5.1e-08 | –
[2], x1 = 0.7764 | 3.5e-08 | –
[2], x1 = 0.8626 | 2.5e-08 | –
[3], φ1 = 0.1012 | – | 1149.2
[3], φ1 = 0.1885 | – | 1125
[3], φ1 = 0.2842 | – | 1101.8
[3], φ1 = 0.3697 | – | 1079.6
[3], φ1 = 0.5106 | – | 1047.3
[3], φ1 = 0.6049 | – | 1029.8
[3], φ1 = 0.7908 | – | 1001.3
[3], φ1 = 0.8724 | – | 993
[3], φ1 = 1 | – | 984

ClC=C(Cl)Cl [trichloroethene] + BrCCBr
Details | excess molar volume [m3/mol] | speed of sound [m/s]
[2], x2 = 0.0956 | 6.3e-08 | –
[2], x2 = 0.2077 | 1.29e-07 | –
[2], x2 = 0.3035 | 1.74e-07 | –
[2], x2 = 0.4561 | 2.09e-07 | –
[2], x2 = 0.5499 | 2.08e-07 | –
[2], x2 = 0.7069 | 1.64e-07 | –
[2], x2 = 0.7903 | 1.25e-07 | –
[2], x2 = 0.8924 | 6.4e-08 | –
[3], φ2 = 0 | – | 1013.7
[3], φ2 = 0.0922 | – | 1000.5
[3], φ2 = 0.2012 | – | 990.5
[3], φ2 = 0.2951 | – | 982.5
[3], φ2 = 0.4462 | – | 973.5
[3], φ2 = 0.54 | – | 971.2
[3], φ2 = 0.6986 | – | 968.2
[3], φ2 = 0.7836 | – | 972.4
[3], φ2 = 0.8885 | – | 975.9

ClC=C(Cl)Cl [trichloroethene]
[1]
Details | Normal boiling temperature [°C] | mass density [kg/m3] | speed of sound [m/s]
– | 87.2 | 1451.34 | 1013.7

ClCCCl [1,2-dichloroethane] + BrCCBr
Details | speed of sound [m/s]
[3], φ2 = 0 | 1173.3

ClC(Cl)C(Cl)Cl [1,1,2,2-tetrachloroethane] + BrCCBr
Details | speed of sound [m/s]
[3], φ2 = 0 | 1133.1

BrCCBr [1,2-dibromoethane]
[1]
Details | Normal boiling temperature [°C] | mass density [kg/m3] | speed of sound [m/s]
– | 131.50 | 2159.67 | 984

CC(Cl)(Cl)Cl [1,1,1-trichloroethane] + BrCCBr
Details | excess molar volume [m3/mol] | speed of sound [m/s]
[2], x2 = 0.0902 | -7.3e-08 | –
[2], x2 = 0.1941 | -1.2e-07 | –
[2], x2 = 0.2744 | -1.33e-07 | –
[2], x2 = 0.4169 | -1.11e-07 | –
[2], x2 = 0.5239 | -6.4e-08 | –
[2], x2 = 0.6304 | -6e-09 | –
[2], x2 = 0.6818 | 2.1e-08 | –
[2], x2 = 0.8709 | 6.9e-08 | –
[3], φ2 = 0 | – | 943.2
[3], φ2 = 0.0787 | – | 942.1
[3], φ2 = 0.1718 | – | 942.1
[3], φ2 = 0.2457 | – | 944.6
[3], φ2 = 0.3811 | – | 950.4
[3], φ2 = 0.4866 | – | 958.1
[3], φ2 = 0.595 | – | 961
[3], φ2 = 0.6486 | – | 965.1
[3], φ2 = 0.8532 | – | 973.6

ClCCCl [1,2-dichloroethane]
[1]
Details | Normal boiling temperature [°C] | mass density [kg/m3] | speed of sound [m/s]
– | 83.6 | 1238.28 | 1173.3

ClC(Cl)C(Cl)Cl [1,1,2,2-tetrachloroethane]
[1]
Details | Normal boiling temperature [°C] | mass density [kg/m3] | speed of sound [m/s]
– | 146.10 | 1578.57 | 1133.1

BrCCBr [1,2-dibromoethane] + ClC=C(Cl)Cl
Details | speed of sound [m/s]
[3], φ1 = 1 | 984
